Data set [1] concerns the target T1, Bcl-xL (Homo sapiens, UniProt Q07817). The data set can be described thus: competition FP with fluorescently labeled Bak-BH3 peptide, Bcl-xL. It is filed as binding.
A further data set has as its target Mcl-1 (Homo sapiens, UniProt Q07820). The data set can be described thus: direct-binding FP of BODIPY-TMR labeled analogs, Mcl-1. Conditions: Table 5, BODIPY-labeled analogues.
In data set [2] the target is T1, Bcl-xL. Briefly: biochemical.
A further data set has as its target proteinase K (Parengyodontium album, UniProt P06873). The data set can be described thus: proteinase K stability of Puma BH3 peptides.
For a further data set, the system named is HIV-1 NL4-3. Conditions: read-out: Inhibition of HIV-1 infectivity, IC50 (nM), X4 strains, NL4-3; TZM-bl cells; mean ± S.E.M., three experiments.
The subject of the next data set is HIV-1 HC4. The note with it: read-out: Inhibition of HIV-1 infectivity, IC50 (nM), X4 strains, HC4; TZM-bl cells; mean ± S.E.M., three experiments.
In a further data set the test system is HIV-1 CC 1/85. The note with it: read-out: Inhibition of HIV-1 infectivity, IC50 (nM), R5 strains, CC 1/85; TZM-bl cells; mean ± S.E.M., three experiments.
A further data set concerns HIV-1 DJ258. Conditions: read-out: Inhibition of HIV-1 infectivity, IC50 (nM), R5 strains, DJ258; TZM-bl cells; mean ± S.E.M., three experiments.
The test system of another data set is HIV. The note with it: background; read-out: anti-HIV IC50 in cell-based assays; cited from earlier work.

Bounds are passed on as bounds.

T1 sequence (Q07817 whole entry, species assumed): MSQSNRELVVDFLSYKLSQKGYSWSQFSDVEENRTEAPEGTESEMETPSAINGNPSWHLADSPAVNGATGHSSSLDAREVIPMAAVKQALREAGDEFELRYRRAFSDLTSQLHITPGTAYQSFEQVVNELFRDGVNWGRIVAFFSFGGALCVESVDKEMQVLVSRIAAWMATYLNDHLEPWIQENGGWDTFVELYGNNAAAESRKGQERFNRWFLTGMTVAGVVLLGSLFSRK
proteinase K, sequence (P06873 106-384): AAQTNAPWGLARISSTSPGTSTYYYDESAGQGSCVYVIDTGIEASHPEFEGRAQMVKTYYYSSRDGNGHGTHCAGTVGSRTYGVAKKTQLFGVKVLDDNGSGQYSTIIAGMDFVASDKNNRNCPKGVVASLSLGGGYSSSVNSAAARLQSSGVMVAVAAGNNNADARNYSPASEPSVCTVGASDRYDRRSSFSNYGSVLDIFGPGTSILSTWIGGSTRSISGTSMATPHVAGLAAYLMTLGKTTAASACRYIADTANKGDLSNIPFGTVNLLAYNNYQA
Mcl-1, sequence (Q07820 whole entry, species assumed): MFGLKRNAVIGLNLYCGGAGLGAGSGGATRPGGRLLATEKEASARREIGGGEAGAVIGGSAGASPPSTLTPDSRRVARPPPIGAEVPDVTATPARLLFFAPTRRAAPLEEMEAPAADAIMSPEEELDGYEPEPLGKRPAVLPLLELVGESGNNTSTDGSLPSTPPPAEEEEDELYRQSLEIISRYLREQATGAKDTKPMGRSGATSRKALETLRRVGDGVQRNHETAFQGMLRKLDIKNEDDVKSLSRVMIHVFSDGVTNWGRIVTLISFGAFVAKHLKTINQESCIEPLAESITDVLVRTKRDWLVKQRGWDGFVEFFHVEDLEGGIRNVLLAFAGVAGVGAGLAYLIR

As usually defined, the Ki is a dissociation constant, usually derived from enzyme kinetics or from competition with a known ligand. Lower therefore signals higher affinity. Usually Kd stands for the constant that tells how readily two partners part at equilibrium. Low values mean tighter binding, high ones weaker binding. The half-life is the time needed for the level to fall by half in the phase considered. A higher half-life goes with slow loss. `CC[C@H](C)[C@H](NC(=O)[C@H](CCC(=O)O)NC(=O)C[C@H](CCCNC(=N)N)NC(=O)[C@H](C)NC(=O)[C@H](Cc1c[nH]c2ccccc12)NC(=O)C[C@H](CCC(N)=O)NC(=O)[C@H](CCC(=O)O)NC(=O)[C@H](CCC(=O)O)NC(C)=O)C(=O)NCC(=O)N[C@@H](C)CC(=O)N[C@@H](CCC(N)=O)C(=O)N[C@@H](CC(C)C)C(=O)N[C@@H](CCCNC(=N)N)CC(=O)N[C@@H](CCCNC(=N)N)C(=O)N[C@@H](CCSC)C(=O)N[C@@H](C)C(=O)N[C@@H](CC(=O)O)CC(=O)N[C@@H](CC(=O)O)C(=O)N[C@@H](CC(C)C)C(=O)N[C@@H](CC(N)=O)CC(=O)N[C@@H](C)C(=O)N[C@@H](CCC(N)=O)C(=O)N[C@@H](Cc1ccc(O)cc1)C(=O)N[C@@H](CCC(=O)O)CC(=O)N[C@@H](CCCNC(=N)N)C(=O)N[C@@H](CCCNC(=N)N)C(N)=O` [2′] registered a Ki at Bcl-xL [1] of less than 1 nM. Further, the Kd was 110 nM at Mcl-1 and 2.2 nM at Bcl-xL [2]. Besides, the figures for the half-life at 50 μm in “in vitro” and on proteinase K were 1.67 h and more than 50 h, respectively.

For the compound enfuvirtide, the IC50 in the data set on HIV-1 NL4-3 was 700 ± 100 nM; in the data set with HIV-1 HC4, 250 ± 20 nM; in the data set with HIV-1 CC 1/85, 1400 ± 400 nM; in the data set with HIV-1 DJ258, 330 ± 60 nM; in the data set with HIV, approximately 1 nM.

Turning to `CC[C@H](C)[C@H](NC(=O)C[C@H](CCC(=O)O)NC(=O)[C@H](CCCNC(=N)N)NC(=O)[C@H](C)NC(=O)[C@H](Cc1c[nH]c2ccccc12)NC(=O)C[C@H](CCC(N)=O)NC(=O)[C@H](CCC(=O)O)NC(=O)[C@H](CCC(=O)O)NC(C)=O)C(=O)NCC(=O)N[C@@H](C)CC(=O)N[C@@H](CCC(N)=O)C(=O)N[C@@H](CC(C)C)C(=O)N[C@@H](CCCNC(=N)N)C(=O)N[C@@H](CCCNC(=N)N)CC(=O)N[C@@H](CCSC)C(=O)N[C@@H](C)C(=O)N[C@@H](CC(=O)O)CC(=O)N[C@@H](CC(=O)O)C(=O)N[C@@H](CC(C)C)C(=O)N[C@@H](CC(N)=O)C(=O)N[C@@H](C)CC(=O)N[C@@H](CCC(N)=O)C(=O)N[C@@H](Cc1ccc(O)cc1)C(=O)N[C@@H](CCC(=O)O)CC(=O)N[C@@H](CCCNC(=N)N)C(=O)N[C@@H](CCCNC(=N)N)C(N)=O` [3′], the half-life at 50 μm in the data set “in vitro” is 0.0583 h; at proteinase K, 2.83 h.

The values are drawn from patent publication US10647743B2, “Method of making biologically active alpha-beta peptides” (priority 2008, dated 2020).
